Laboratory results: the supplement of paper PMC10307832

Legend:
Assay in all cases: relative viability (nuclei count vs DMSO), 5 days (fraction); higher = more cells survive
[1] = compound: Nc1nc2[nH]cc(CCc3ccc(C(=O)N[C@@H](CCC(=O)O)C(=O)O)cc3)c2c(=O)[nH]1 [Pemetrexed] + CS(=O)(=O)N1CCN(Cc2cc3nc(-c4cccc5[nH]ncc45)nc(N4CCOCC4)c3s2)CC1 [Pictilisib] (partner 1 µM)
Summary of the method: (§1)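 After 5 days of treatment, lung cancer cells in 1536-well plates were fixed and stained in a single step (final 0.05% Triton X-100, 1% formaldehyde, 1 ug/ml Hoechst) and their nuclei counted on 4× images. Treatment had been applied by pin tool the day after seeding as one drug alone or as a fixed anchor-drug dose with five library-drug doses (not always all listed) in √10 steps. Relative viability is the nuclei count of treated wells divided by that of vehicle wells, and values are medians of duplicate plates.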

[2] = compound: CC[C@H](Nc1ncnc2[nH]cnc12)c1nc2cccc(F)c2c(=O)n1-c1ccccc1 [Idelalisib] + NC(=O)Nc1cc(-c2cccc(F)c2)sc1C(=O)N[C@H]1CCCNC1 [AZD7762] (partner 0.2 µM)
Summary of the method: as §1

[3] = compound: Nc1nc2[nH]cc(CCc3ccc(C(=O)N[C@@H](CCC(=O)O)C(=O)O)cc3)c2c(=O)[nH]1 [Pemetrexed] + CC1(C)CCC(c2ccc(Cl)cc2)=C(CN2CCN(c3ccc(C(=O)NS(=O)(=O)c4ccc(N[C@H](CCN5CCOCC5)CSc5ccccc5)c(S(=O)(=O)C(F)(F)F)c4)cc3)CC2)C1 [Navitoclax] (partner 0.5 µM)
Summary of the method: as §1

[4] = compound: CC[C@H](Nc1ncnc2[nH]cnc12)c1nc2cccc(F)c2c(=O)n1-c1ccccc1 [Idelalisib] + Cc1nc(NC(=O)N2CCC[C@H]2C(N)=O)sc1-c1ccnc(C(C)(C)C(F)(F)F)c1 [Alpelisib] (partner 2 µM)
Summary of the method: as §1

Cell Line | relative viability ([1]; first compound 0.002 µM) | relative viability ([1]; first compound 0.006325 µM) | relative viability ([1]; first compound 0.02 µM) | relative viability ([1]; first compound 0.06325 µM) | relative viability ([1]; first compound 0.2 µM) | relative viability ([2]; first compound 0.04 µM) | relative viability ([2]; first compound 0.1265 µM) | relative viability ([2]; first compound 0.4 µM) | relative viability ([2]; first compound 1.265 µM) | relative viability ([2]; first compound 4 µM) | relative viability ([3]; first compound 0.002 µM) | relative viability ([3]; first compound 0.006325 µM) | relative viability ([3]; first compound 0.02 µM) | relative viability ([3]; first compound 0.06325 µM) | relative viability ([3]; first compound 0.2 µM) | relative viability ([4]; first compound 0.04 µM) | relative viability ([4]; first compound 0.1265 µM) | relative viability ([4]; first compound 0.4 µM) | relative viability ([4]; first compound 1.265 µM) | relative viability ([4]; first compound 4 µM)
PC-14 | 0.663 | 0.618 | 0.642 | 0.321 | 0.133 | 0.313 | 0.446 | 0.334 | 0.265 | 0.301 | 0.976 | 0.976 | 1.05 | 0.428 | 0.129 | 0.992 | 0.882 | 0.874 | 0.983 | 0.9
H3255 | 0.385 | 0.43 | 0.504 | 0.42 | 0.431 | 0.956 | 0.859 | 0.911 | 0.909 | 0.802 | 0.325 | 0.508 | 0.537 | 0.526 | 0.464 | 0.652 | 0.683 | 0.591 | 0.518 | 0.607
NCI-H2126 | 0.451 | 0.479 | 0.494 | 0.487 | 0.436 | 0.961 | 1.06 | 0.94 | 1.02 | 1 | 0.828 | 0.827 | 0.882 | 0.833 | 0.82 | 0.739 | 0.739 | 0.611 | 0.675 | 0.6
HCC-366 | 0.193 | 0.133 | 0.151 | 0.127 | 0.14 | 0.248 | 0.317 | 0.242 | 0.106 | 0.249 | 1.07 | 0.95 | 0.974 | 1.02 | 0.963 | 0.429 | 0.4 | 0.28 | 0.245 | 0.183
LU99A | 0.329 | 0.295 | 0.332 | 0.334 | 0.256 | 0.335 | 0.422 | 0.294 | 0.209 | 0.425 | 0.73 | 0.75 | 0.774 | 0.87 | 0.748 | 0.665 | 0.479 | 0.36 | 0.554 | 0.45
HOP-62 | 0.351 | 0.666 | 0.817 | 0.655 | 0.655 | 0.731 | 0.706 | 0.398 | 0.304 | 0.545 | 1.03 | 1.01 | 1.19 | 0.906 | 0.894 | 1.19 | 1.09 |  | 0.853 | 1.06
HCC-15 | 0.629 | 0.777 | 0.766 | 0.544 | 0.238 | 1.35 | 0.909 | 1.25 | 1.16 | 1.21 | 0.701 | 0.668 | 0.702 | 0.588 | 0.482 | 1.07 | 0.884 | 0.794 | 0.912 | 0.83
HARA | 0.465 | 0.374 | 0.436 | 0.235 | 0.204 | 0.309 | 0.301 |  | 0.169 | 0.392 | 1 | 1.1 | 1.17 | 1.08 | 0.381 | 1.03 | 0.843 | 0.855 | 0.754 | 0.751
